Tests used:
Details in all cases: human, microsomes
[1] = (§1) Fraction of total metabolites recovered as M4; assay type: ADME, Small intestine, Microsome
[2] = as §1; assay type: ADME, Liver, Microsome
[3] = (§2) Fraction of total metabolites recovered as M10; assay type: ADME, Liver, Microsome
[4] = as §2; assay type: ADME, Small intestine, Microsome

## CC(C)(C)NC(=O)[C@@H]1C[C@@H]2C[C@@H](O)CC[C@@H]2CN1C[C@@H](O)[C@H](Cc1ccccc1)NC(=O)[C@H](CC(N)=O)NC(=O)c1ccc2ccccc2n1
[1]
  Compound recovery: 21%
[2]
  Compound recovery: 21%

## CC(C)(CO)NC(=O)[C@@H]1C[C@@H]2CCCC[C@@H]2CN1C[C@@H](O)[C@H](Cc1ccccc1)NC(=O)[C@H](CC(N)=O)NC(=O)c1ccc2ccccc2n1
[3]
  Compound recovery: 6%
[4]
  Compound recovery: 6%

Reference: ChEMBL document CHEMBL3706492, “CYP3A4-mediated hepatic metabolism of the HIV-1 protease inhibitor saquinavir in vitro” (Xenobiotica, 2002)
